# Key:
# [1] = target: T1, Sirt3 (hSirt3 118-399) (Homo sapiens, UniProt Q9NTG7); assay: switchSENSE kinetics; assay type: binding; settings: absence of cofactors; HDAC buffer, 5% DMSO, 25 °C
# T1 sequence (Q9NTG7 118-399): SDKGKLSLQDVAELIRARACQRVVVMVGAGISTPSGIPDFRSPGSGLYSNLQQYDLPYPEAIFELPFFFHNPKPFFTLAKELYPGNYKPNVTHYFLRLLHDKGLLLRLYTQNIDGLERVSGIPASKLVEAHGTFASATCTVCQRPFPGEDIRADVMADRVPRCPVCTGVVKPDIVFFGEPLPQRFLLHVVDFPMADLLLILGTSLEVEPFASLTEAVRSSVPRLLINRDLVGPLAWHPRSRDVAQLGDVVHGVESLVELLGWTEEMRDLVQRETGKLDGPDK
# [2] = target: T1, Sirt3 (hSirt3 118-399); assay: fluorescence deacetylation assay; assay type: biochemical; settings: read-out: % control at 10 μM
Compound,Kd [1],remaining activity at 10 µM [2]
CCCCNC(=O)[C@@H](Cc1ccc(Cl)cc1)NC(=O)CSC(=S)c1ccccc1 [AA12AC71],–,76.5%
C=C(CC)C(=O)c1ccc(OCC(=O)N[C@H](Cc2ccc(Cl)cc2)C(=O)NCCCC)c(Cl)c1Cl [AA12AC92],–,83.1%

# Continued, values first:
Kd [1],remaining activity at 10 µM [2],Compound
4.56 ± 3.5 µM,–,CCCCNC(=O)COc1ccc2c(c1)CCc1ccccc1C2NC(=O)CCCOc1cc([N+](=O)[O-])c(C(C)O)cc1OC (centres unmarked) [AA8AC40]
–,75.7%,C=C(CC)C(=O)c1ccc(OCC(=O)NC2c3ccccc3CCc3cc(OCC(=O)NCCCC)ccc32)c(Cl)c1Cl (centres unmarked) [AA8AC92]
–,72.4%,CCCCNC(=O)COc1ccc2c(c1)CCc1ccccc1C2NC(=O)CSC(=S)c1ccccc1 (centres unmarked) [AA8AC71]

# — paper doi:10.1101/2022.01.05.475007v1 (biorxiv, 2022)
